Experimental data as given in PubChem BioAssay (NCI).
Where “and” joins values, the source holds several entries; their conditions need not be identical. Identical values can stand only once.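 Protocol summary: plate cells (96-well), add compound at 5 concentrations, incubate 48 h, interpolate endpoints linearly. GI50 is the concentration that inhibits growth by half. The concentration for full growth arrest is given as TGI.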

Columns and labels:
Assay in all cases: growth of human tumour cells (NCI), 48 h
CAKI-1 renal = system: CAKI-1 renal
DLD-1 colon = system: DLD-1 colon
DMS 114 small cell lung = system: DMS 114 small cell lung
IGROV1 ovarian = system: IGROV1 ovarian
NCI-H460 lung = system: NCI-H460 lung
OVCAR-3 ovarian = system: OVCAR-3 ovarian
SN12C renal = system: SN12C renal
TK-10 renal = system: TK-10 renal
UO-31 renal = system: UO-31 renal
SF-539 CNS = system: SF-539 CNS

SMILES	TGI (CAKI-1 renal) [µM]	TGI (DLD-1 colon) [µM]	TGI (DMS 114 small cell lung) [µM]	TGI (IGROV1 ovarian) [µM]	TGI (NCI-H460 lung) [µM]	TGI (OVCAR-3 ovarian)	TGI (SN12C renal) [µM]	TGI (TK-10 renal) [µM]	TGI (UO-31 renal) [µM]	TGI (SF-539 CNS) [µM]	GI50 (CAKI-1 renal) [µM]	GI50 (IGROV1 ovarian) [µM]	GI50 (NCI-H460 lung) [µM]	GI50 (OVCAR-3 ovarian)	GI50 (SF-539 CNS) [µM]	GI50 (SN12C renal) [µM]	GI50 (TK-10 renal)	GI50 (UO-31 renal) [µM]
CCOC(=O)C1(Cc2ccc3ccccc3c2)CCCCCN1 (stereo not drawn)	> 100	56.9	87.4	> 100	34.7	> 100 µM	> 100	> 100	82.1	–	–	–	–	–	–	–	–	–
CC12OC3CC(O1)C1(C=O)C4CCC5(C)C(c6ccc(=O)oc6)CCC5(O)C4CCC1(C3)O2 (stereo not drawn)	0.729	0.483	0.191	2.44	0.159	0.384 µM	–	0.472	0.97	0.228	–	–	–	–	–	–	–	–
N#CC12Cc3ccc4c(c3-c3cccc(c31)CCN2C(=O)c1ccccc1)OCO4 (stereo not drawn)	–	> 100	> 100	> 100	–	> 100 µM	> 100	> 100	> 100	> 100	–	–	–	–	–	–	–	–
COc1cc(/C=C/C(=O)c2ccc(Nc3nc(Nc4ccccc4)nc(Nc4ccc(Cl)cc4)n3)cc2)cc(OC)c1OC	> 32.5	–	–	> 32.5	> 32.5	> 32.5 µM	> 32.5	> 32.5	> 32.5	16.2	11	8.17	8.71	8.62 µM	6.84	20.9	19.1 µM	2.46
CC[C@@]1(OC(=O)CN)C(=O)OCc2c1cc1n(c2=O)Cc2cc3c(N)c4c(cc3nc2-1)OCO4	–	–	–	0.342	–	0.481 µM and 0.336 µM	–	> 100	–	0.000945	< 0.0001	0.018	< 0.0001	0.0352 µM and 0.0116 µM	< 0.0001	< 0.0001	0.0167 µM and 0.104 µM	< 0.0001
Cc1cc(C)c2[s+]snc2c1	> 100	> 100	–	> 100	> 100	> 100 µM	> 100	> 100	> 100	> 100	–	–	–	–	–	–	–	–
C=C(C)[C@@H]1CC[C@]2(C)[C@H](C=CC3=C4C[C@@](C)(CO)CC[C@]4(C)CC[C@]32C)[C@@]1(C)CCCN	2.85	–	–	2.95	3.33	2.85 µM	3.15	3.36	2.65	3.13	1.52	1.5	1.71	1.48 µM	1.73	1.64	1.78 µM	1.34
CCOc1ccc(NC(=O)CCC(=O)NN)cc1	> 100	> 100	> 100	–	> 100	> 100 µM	> 100	> 100	> 100	–	–	–	–	–	–	–	–	–
Cc1cc2nc3c4ccccc4n(CCN(C)C)c3nc2cc1C	12.2	–	–	10.2	9.1	7.28 µM	10.5	14.1	14.5	4.66	0.982	1.28	0.709	1.91 µM	1.83	1.08	2.98 µM	0.726
